Results as given in patent US9926276B2, “Substituted benzamides with activity towards EP4 receptors” (DRACONIS PHARMA, S.L., priority 2013, dated 2018).

Assays:
human EP4 receptor [1] = target: T1, human EP4 receptor (Homo sapiens, UniProt P35408); assay: Measurement of cAMP responses by Homogeneous Time Resolved Fluorescence (Test 2); assay type: cell-based; parameters: expressed in transfected cells; conditions: at 10 μM; PGE2 1 nM, HEK-293 cells stably expressing human EP4
Procedure: Test 2: Measurement of cAMP Responses by Homogeneous Time Resolved Fluorescence
cAMP measurements on HEK-293 cells that stably expressed human EP4 receptors were performed by using a system based on Homogeneous Time Resolved Fluorescense (HTRF). This technology allows the direct measurement of cAMP in living cells. The principle of this assay is based on competition between cAMP produced by cells and cAMP-d2 conjugate for the binding with monoclonal anti-cAMP-cryptate conjugate. The HTRF cAMP kit from CisBio was used according to the manufacturer's directions. The experimental procedure was performed as stated below.
Suspended cells (30,000 cells per well) were added to 96-well culture plates in 30 μl of Optimem supplemented with 500 μM IBMX. Compounds were then added in 10 μl of stimulation buffer and incubated at 25° C. for 30 minutes followed by 10 μl of PGE2 to a final concentration of 1 nM. After 30 minutes at 25° C., the reaction was stopped lysing the cells with a mixture of 25 μl of cryptate and 25 μl of cAMP-d2 prepared in the lysis buffer supplied by the manufacturer. Plates were incubated for an additional hour at room temperature and read at 665 nm/620 nm using an UltraEvolution Plate reader (Tecan).
Antagonist percentage inhibition was calculated relating compounds activity to the 0% inhibition of the wells incubated with 1 nM PGE2 alone and 100% inhibition of the wells incubated with 1 nM PGE2 plus 1 μM of the reference antagonist.

human EP4 receptor [2] = target: T1, human EP4 receptor; assay: Human EP4 receptor radioligand binding assay (Test 1); parameters: expressed in transfected cells; host or cells: HEK-293 cell membranes; conditions: [3H]-PGE2 1 nM, transfected HEK-293 cell membranes; for Results of Test 1 (Binding assay, % inh): at 10 μM; for inhibition at 10 µM: read-out: Results of Test 1 (Binding assay, % inh)
Procedure: Test 1: Human EP4 Receptor Radioligand Binding Assay
To investigate binding properties of EP4 receptor ligands to human EP4 receptor, transfected HEK-293 cell membranes and [3H]-PGE2 (Perkin Elmer) were used. In 96-well plates the assay was carried out with a total reaction volume of 250 μl, containing 25 μl of membrane suspension (30 μg protein/well), 25 μl of [3H]-PGE2 (1 nM) in either absence or presence of 25 μl of either buffer or PGE2 (10 μM) for total and non-specific binding, respectively. Binding buffer contained 25 mM MES, 10 mM MgCl2 and 1 mM EDTA at pH 6.0. Plates were incubated at 25° C. for 120 minutes. After the incubation period, 200 μl of incubate were transferred to MultiScreen HTS, FB plates (Millipore), filtered and plates were washed 6 times with ice-cold 10 mM MES, 0.01% BSA at pH 6.0. Filters were dried and counted in a MicroBeta scintillation counter (Perkin-Elmer) using EcoScint liquid scintillation cocktail.
Percentage inhibition was calculated relating compounds activity to the 0% inhibition of the wells incubated with 1 nM [3H]-PGE2 alone (total binding) and 100% inhibition of the wells incubated with 1 nM [3H]-PGE2 plus 10 μM PGE2 (non-specific binding).

T1 sequence (P35408 whole entry): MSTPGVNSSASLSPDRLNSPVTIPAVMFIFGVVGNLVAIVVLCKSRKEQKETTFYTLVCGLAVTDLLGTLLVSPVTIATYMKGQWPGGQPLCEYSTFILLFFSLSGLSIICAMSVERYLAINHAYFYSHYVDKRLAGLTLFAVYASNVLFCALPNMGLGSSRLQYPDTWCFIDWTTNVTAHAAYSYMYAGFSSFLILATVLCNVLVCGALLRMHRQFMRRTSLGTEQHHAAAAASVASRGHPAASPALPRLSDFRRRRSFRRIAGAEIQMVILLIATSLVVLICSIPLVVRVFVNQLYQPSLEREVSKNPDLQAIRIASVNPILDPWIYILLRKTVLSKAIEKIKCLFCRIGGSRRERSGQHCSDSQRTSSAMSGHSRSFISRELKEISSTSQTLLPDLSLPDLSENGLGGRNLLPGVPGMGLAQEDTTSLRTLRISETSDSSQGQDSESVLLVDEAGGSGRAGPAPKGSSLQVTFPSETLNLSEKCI

Row | Structure (SMILES) | Results of Test 2 (Functional assay, antagonist % inh) (human EP4 receptor [1]) | Results of Test 1 (Binding assay, % inh) (human EP4 receptor [2]) | inhibition at 10 µM (human EP4 receptor [2])
1 | COc1cccc(-c2ccc(Cl)c(C(=O)Nc3c(C)cc(C(=O)O)cc3C)c2)c1 [Example 1, 4-(4-Chloro-3′-methoxybiphenyl-3-ylcarboxamido)-3,5-dimethylbenzoic acid] | $ (% inh >75) | # (% inh >75) | 
2 | Cc1cc(C(=O)O)cc(C)c1NC(=O)c1cc(-c2cccc(CO)c2)ccc1Cl [Example 2, 4-(4-Chloro-3′-(hydroxymethyl)biphenyl-3-ylcarboxamido)-3,5-dimethylbenzoic acid] | $ (% inh >75) | # (% inh >75) | 
3 | COc1cccc(-c2ccc(C)c(C(=O)Nc3c(C)cc(C(=O)O)cc3C)c2)c1 [Example 3, 4-(3′-Methoxy-4-methylbiphenyl-3-ylcarboxamido)-3,5-dimethylbenzoic acid] | $ (% inh >75) | # (% inh >75) | 
4 | Cc1ccc(-c2cccc(F)c2)cc1C(=O)Nc1c(C)cc(C(=O)O)cc1C [Example 4, 4-(3′-Fluoro-4-methylbiphenyl-3-ylcarboxamido)-3,5-dimethylbenzoic acid] | $ (% inh >75) | # (% inh >75) | 
5 | Cc1ccc(-c2cccc(C#N)c2)cc1C(=O)Nc1c(C)cc(C(=O)O)cc1C [Example 5, 4-(3′-Cyano-4-methylbiphenyl-3-ylcarboxamido)-3,5-dimethylbenzoic acid] | $ (% inh >75) | # (% inh >75) | 
6 | Cc1ccc(-c2cccc(CO)c2)cc1C(=O)Nc1c(Cl)cc(C(=O)O)cc1Cl [Example 6, 3,5-Dichloro-4-(3′-(hydroxymethyl)-4-methylbiphenyl-3-ylcarboxamido)benzoic acid] | $ (% inh >75) | # (% inh >75) | 
7 | Cc1ccc(-c2cccc(C#N)c2)cc1C(=O)Nc1c(Cl)cc(C(=O)O)cc1Cl [Example 7, 3,5-Dichloro-4-(3′-cyano-4-methylbiphenyl-3-ylcarboxamido)benzoic acid] | $ (% inh >75) | # (% inh >75) | 
8 | COc1cccc(-c2ccc(C)c(C(=O)Nc3c(Cl)cc(C(=O)O)cc3Cl)c2)c1 [Example 8, 3,5-Dichloro-4-(3′-methoxy-4-methylbiphenyl-3-ylcarboxamido)benzoic acid] | $ (% inh >75) | # (% inh >75) | 
9 | Cc1ccc(-c2cccc(CO)c2)cc1C(=O)Nc1c(C)cc(C(=O)O)cc1C [Example 9, 4-(3′-(Hydroxymethyl)-4-methylbiphenyl-3-ylcarboxamido)-3,5-dimethylbenzoic acid] | $ (% inh >75) | # (% inh >75) | 
10 | Cc1ccc(-c2cc(Cl)ccc2F)cc1C(=O)Nc1c(C)cc(C(=O)O)cc1C [Example 10, 4-(5′-Chloro-2′-fluoro-4-methylbiphenyl-3-ylcarboxamido)-3,5-dimethylbenzoic acid] | $ (% inh >75) | # (% inh >75) | 
11 | Cc1ccc(-c2cc(F)ccc2F)cc1C(=O)Nc1c(C)cc(C(=O)O)cc1C [Example 11, 4-(2′,5′-Difluoro-4-methylbiphenyl-3-ylcarboxamido)-3,5-dimethylbenzoic acid] | $ (% inh >75) | # (% inh >75) | 
12 | COc1ccc(F)c(-c2ccc(C)c(C(=O)Nc3c(C)cc(C(=O)O)cc3C)c2)c1 [Example 12, 4-(2′-fluoro-5′-methoxy-4-methylbiphenyl-3-ylcarboxamido)-3,5-dimethylbenzoic acid] | $ (% inh >75) | # (% inh >75) | 
13 | Cc1ccc(-c2cccc(C(N)=O)c2)cc1C(=O)Nc1c(C)cc(C(=O)O)cc1C [Example 13, 4-(3′-Carbamoyl-4-methylbiphenyl-3-ylcarboxamido)-3,5-dimethylbenzoic acid] | $ (% inh >75) | # (% inh >75) | 
14 | Cc1cc(C(=O)O)cc(C)c1NC(=O)c1cc(-c2cccc(Cl)c2)ccc1Cl [Example 14, 4-(3′,4-Dichlorobiphenyl-3-ylcarboxamido)-3,5-dimethylbenzoic acid] | $ (% inh >75) | # (% inh >75) | 
15 | Cc1ccc(-c2cccc(Cl)c2)cc1C(=O)Nc1c(Cl)cc(C(=O)O)cc1Cl [Example 15, 3,5-Dichloro-4-(3′-chloro-4-methylbiphenyl-3-ylcarboxamido)benzoic acid] | $ (% inh >75) | # (% inh >75) | 
16 | O=C(O)c1cc(Cl)c(NC(=O)c2cc(-c3cccc(CO)c3)ccc2Cl)c(Cl)c1 [Example 16, 3,5-Dichloro-4-(4-chloro-3′-(hydroxymethyl)biphenyl-3-ylcarboxamido)benzoic acid] | $ (% inh >75) | # (% inh >75) | 
17 | COCCN(C)c1ccc(Cl)c(C(=O)Nc2c(Cl)cc(C(=O)O)cc2Cl)n1 [Example 53, 3,5-Dichloro-4-(3-chloro-6-((2-methoxyethyl)(methyl)amino)-picolinamido)benzoic acid] |  |  | > 75%
18 | CCCCN(C)c1ccc(Cl)c(C(=O)Nc2c(Cl)cc(C(=O)O)cc2Cl)n1 [Example 54, 4-(6-(Butyl(methyl)amino)-3-chloropicolinamido)-3,5-dichlorobenzoic acid] |  |  | > 75%
19 | CCN(CC)c1ccc(Cl)c(C(=O)Nc2c(Cl)cc(C(=O)O)cc2Cl)n1 [Example 55, 3,5-Dichloro-4-(3-chloro-6-(diethylamino)picolinamido)benzoic acid] |  |  | > 75%
20 | CCCNc1ccc(Cl)c(C(=O)Nc2c(Cl)cc(C(=O)O)cc2Cl)n1 [Example 56, 3,5-Dichloro-4-(3-chloro-6-(propylamino)picolinamido)benzoic acid] |  |  | > 75%
21 | Cc1ccc(CC2CCCCC2)cc1C(=O)Nc1c(Cl)cc(C(=O)O)cc1Cl [Example 61, 3,5-Dichloro-4-(5-(cyclohexylmethyl)-2-methylbenzamido)benzoic acid] |  |  | > 75%
22 | O=C(O)c1cc(Cl)c(NC(=O)c2cc(Cc3ccccc3)ccc2Cl)c(Cl)c1 [Example 62, 4-(5-Benzyl-2-chlorobenzamido)-3,5-dichlorobenzoic acid] |  |  | > 75%
23 | CC(C)Cc1ccc(Cl)c(C(=O)Nc2c(Cl)cc(C(=O)O)cc2Cl)c1 [Example 63, 3,5-Dichloro-4-(2-chloro-5-isobutylbenzamido)-benzoic acid] |  |  | > 75%
24 | CCN(C(=O)c1cc(OCC(C)C)ccc1Cl)c1c(Cl)cc(C(=O)O)cc1Cl [Example 66, 3,5-Dichloro-4-(2-chloro-5-isobutoxy-N-ethylbenzamido)benzoic acid] |  |  | > 75%
25 | CC(C)COc1ccc(Cl)c(C(=O)N(CC(C)C)c2c(Cl)cc(C(=O)O)cc2Cl)c1 [Example 67, 3,5-Dichloro-4-(2-chloro-5-isobutoxy-N-isobutylbenzamido)benzoic acid] |  |  | > 75%
26 | CCN(C(=O)c1cc(OCc2ccc(F)cc2F)ccc1Cl)c1c(Cl)cc(C(=O)O)cc1Cl [Example 69, 3,5-Dichloro-4-(2-chloro-5-(2,4-difluorobenzyloxy)-N-ethylbenzamido)benzoic acid] |  |  | > 75%
27 | CCN(C(=O)c1cc(OCc2ccc(Cl)cc2F)ccc1Cl)c1c(Cl)cc(C(=O)O)cc1Cl [Example 70, 3,5-Dichloro-4-(2-chloro-5-(4-chloro-2-fluorobenzyloxy)-N-ethylbenzamido)benzoic acid] |  |  | > 75%
28 | Cc1ccc(C(=O)O)cc1NC(=O)c1cc(OCc2ccccc2)ccc1Cl [Example 71, Sodium 3-(5-(benzyloxy)-2-chlorobenzamido)-4-methylbenzoate] |  |  | > 75%
